Laboratory results from ChEMBL document CHEMBL5532661, “Discovery of a Novel Glucagon-like Peptide-1 (GLP-1) Analogue from Bullfrog and Investigation of Its Potential for Designing GLP-1-Based Multiagonists” (J Med Chem, 2024).
Active and inactive are the calls of the source. The rule behind the calls is not given here. Numbered stars: 1 amine (or outer) side, 2 acyl side, 3 side chain; on linkers, the order of the positions; unused ones are H or OH. Side chains are listed from the residue outwards. Peptide text beside a SMILES is read from it. * marks the point of attachment. γGlu = O=C(O)[C@H](CCC(=O)[*:2])N[*:1]; Palmitoyl = CCCCCCCCCCCCCCCC(=O)*

Experiments:
[1] = target: Glucagon receptor (Mus musculus) (UniProt Q61606); experiment: Agonist activity at mouse GCGR receptor expressed in HEK293 cells assessed as cAMP level measured after 60 mins by HTRF based assay; assay type: functional, cell-based; settings: filed as agonist
[2] = target: T1, Glucagon receptor (Homo sapiens, UniProt P47871); experiment: Potency index, ratio of glucagon EC50 to test compound EC50 for agonist activity at human GCGR expressed in HEK293 cells assessed as cAMP level measured after 60 mins by HTRF based assay; assay type: functional, cell-based; settings: filed as agonist
[3] = tested on: Mus musculus; experiment: Reduction in blood glucose level in non-fasting DIO mouse at 30 nmol/kg, sc treated twice a day measured after 21 days by glucose tolerance test; assay type: functional, organism-based; settings: time 21.0 day
[4] = tested on: Mus musculus; experiment: Antihyperglycemic effect in DIO mouse assessed as antihyperglycemic duration by measuring blood glucose at 30 nmol/kg, sc measured after 12 to 24 hrs by hypoglycemic duration assay; assay type: functional, organism-based; settings: time 12-24 hrs
[5] = target: T2, Glucagon-like peptide 1 receptor (Homo sapiens, UniProt P43220); experiment: Agonist activity at human GLP-1 receptor expressed in HEK293 cells assessed as cAMP level by measuring relative percent (GLP-1 EC50/compound EC50) measured after 60 mins by HTRF based assay relative to GLP-1; assay type: functional, cell-based; settings: filed as agonist
[6] = target: T2, Glucagon-like peptide 1 receptor; experiment: Potency index, ratio of Semaglutide EC50 to test compound EC50 for agonist activity at human GLP-1 receptor expressed in HEK293 cells assessed as cAMP level measured after 60 mins by HTRF based assay; assay type: functional, cell-based; settings: filed as agonist
[7] = tested on: Mus musculus; experiment: Hypoglycemic effect in ICR mouse treated with 3 g/kg glucose assessed as reduction in blood glucose level at 10 nmol/kg, sc measured upto 120 mins by acute glucose lowering test; assay type: functional, organism-based
[8] = tested on: Mus musculus; experiment: Anorexigenic effect in ICR mouse assessed as decrease in food intake at 30 nmol/kg, sc measured upto 72 hrs by acute food intake study; assay type: functional, organism-based
[9] = tested on: Mus musculus; experiment: Reduction in total cholesterol in DIO mouse at 30 nmol/kg, sc treated twice a day measured after 21 days; assay type: functional, organism-based; settings: time 21.0 day
[10] = tested on: Mus musculus; experiment: Anorexigenic effect in sc dosed ICR mouse assessed as decrease in food intake measured upto 72 hrs by acute food intake study; assay type: functional, organism-based; settings: dose 10-100 nmol/kg
[11] = target: T3, Glucagon-like peptide 1 receptor (Mus musculus) (UniProt O35659); experiment: Agonist activity at mouse GLP-1 receptor expressed in HEK293 cells assessed as cAMP level measured after 60 mins by HTRF based assay; assay type: functional, cell-based; settings: filed as agonist
T3 sequence (whole entry): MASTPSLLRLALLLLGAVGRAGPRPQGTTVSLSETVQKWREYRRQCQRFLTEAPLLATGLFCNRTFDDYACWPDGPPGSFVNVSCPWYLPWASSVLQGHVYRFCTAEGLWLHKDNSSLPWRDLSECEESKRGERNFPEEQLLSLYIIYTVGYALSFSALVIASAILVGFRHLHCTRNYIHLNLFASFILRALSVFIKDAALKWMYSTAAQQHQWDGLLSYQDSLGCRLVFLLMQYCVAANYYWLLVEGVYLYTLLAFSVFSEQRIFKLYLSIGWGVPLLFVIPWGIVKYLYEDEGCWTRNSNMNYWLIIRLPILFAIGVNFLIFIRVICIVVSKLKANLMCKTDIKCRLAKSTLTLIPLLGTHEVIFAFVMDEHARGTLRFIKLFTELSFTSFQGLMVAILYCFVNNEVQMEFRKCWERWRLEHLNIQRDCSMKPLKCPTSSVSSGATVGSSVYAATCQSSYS

[12] = target: T3, Glucagon-like peptide 1 receptor (Mus musculus); experiment: Potency index, ratio of GLP-1 EC50 to test compound EC50 for agonist activity at mouse GLP-1 receptor expressed in HEK293 cells assessed as cAMP level measured after 60 mins by HTRF based assay; assay type: functional, cell-based; settings: filed as agonist
[13] = tested on: Mus musculus; experiment: Anorexigenic effect in ICR mouse assessed as decrease in food intake at 10 nmol/kg, sc measured upto 72 hrs by acute food intake study; assay type: functional, organism-based
[14] = tested on: Mus musculus; experiment: Hypoglycemic effect in ICR mouse treated with 3 g/kg glucose assessed as reduction in blood glucose level at 30 nmol/kg, sc measured upto 120 mins pretreated with GLP-1R antagonist by OGTT; assay type: functional, organism-based
[15] = tested on: Mus musculus; experiment: Hypoglycemic effect in ICR mouse treated with 3 g/kg glucose assessed as reduction in blood glucose level at 100 nmol/kg, sc measured upto 120 mins by acute glucose lowering test; assay type: functional, organism-based
[16] = tested on: Mus musculus; experiment: Reduction in serum triglyceride in DIO mouse at 30 nmol/kg, sc treated twice a day measured after 21 days; assay type: functional, organism-based; settings: time 21.0 day
[17] = tested on: Mus musculus; experiment: Reduction in serum AST level in DIO mouse at 30 nmol/kg, sc treated twice a day measured after 21 days; assay type: functional, organism-based; settings: time 21.0 day
[18] = tested on: Mus musculus; experiment: Reduction in serum ALT level in DIO mouse at 30 nmol/kg, sc treated twice a day measured after 21 days; assay type: functional, organism-based; settings: time 21.0 day
[19] = tested on: Mus musculus; experiment: Antihyperglycemic effect in DIO mouse assessed as prolonged antihyperglycemic duration by measuring blood glucose at 100 nmol/kg, sc; assay type: functional, organism-based
[20] = tested on: Mus musculus; experiment: Reduction in hepatic lipid content in DIO mouse at 30 nmol/kg, sc treated twice a day measured after 21 days by H and E staining based assay; assay type: functional, organism-based; settings: time 21.0 day
[21] = target: T1, Glucagon receptor; experiment: Agonist activity at human GCGR expressed in HEK293 cells assessed as cAMP level measured after 60 mins by HTRF based assay; assay type: functional, cell-based
[22] = tested on: Mus musculus; experiment: Reduction in total fat mass in DIO mouse at 30 nmol/kg, sc treated twice a day measured after 21 days; assay type: functional, organism-based; settings: time 21.0 day
[23] = tested on: Mus musculus; experiment: Reduction in body weight in DIO mouse at 30 nmol/kg, sc treated twice a day measured after 21 days; assay type: functional; set-up: scale not given: the % may be the effect or the level left; settings: time 21 day
[24] = tested on: Mus musculus; experiment: Antihyperglycemic effect in DIO mouse assessed as antihyperglycemic duration by measuring blood glucose at 30 nmol/kg, sc administered twice daily measured after 72 hrs by hypoglycemic duration assay; assay type: functional, organism-based
[25] = target: T1, Glucagon receptor; experiment: Agonist activity at human GCGR expressed in HEK293 cells assessed as cAMP level by measuring relative percent (glucagon EC50/compound EC50) measured after 60 mins by HTRF based assay relative to glucagon; assay type: functional, cell-based; settings: filed as agonist
[26] = target: T2, Glucagon-like peptide 1 receptor; experiment: Agonist activity at human GLP-1 receptor expressed in HEK293 cells assessed as cAMP level measured after 60 mins by HTRF based assay; assay type: functional, cell-based
[27] = tested on: Mus musculus; experiment: Anorexigenic effect in ICR mouse assessed as decrease in food intake at 30 nmol/kg, sc measured at 48 hrs by acute food intake study; assay type: functional, organism-based
[28] = tested on: Mus musculus; experiment: Reduction in feed intake in DIO mouse at 30 nmol/kg, sc treated twice a day measured after 21 days; assay type: functional, organism-based; settings: time 21.0 day

T2 sequence (P43220 whole entry): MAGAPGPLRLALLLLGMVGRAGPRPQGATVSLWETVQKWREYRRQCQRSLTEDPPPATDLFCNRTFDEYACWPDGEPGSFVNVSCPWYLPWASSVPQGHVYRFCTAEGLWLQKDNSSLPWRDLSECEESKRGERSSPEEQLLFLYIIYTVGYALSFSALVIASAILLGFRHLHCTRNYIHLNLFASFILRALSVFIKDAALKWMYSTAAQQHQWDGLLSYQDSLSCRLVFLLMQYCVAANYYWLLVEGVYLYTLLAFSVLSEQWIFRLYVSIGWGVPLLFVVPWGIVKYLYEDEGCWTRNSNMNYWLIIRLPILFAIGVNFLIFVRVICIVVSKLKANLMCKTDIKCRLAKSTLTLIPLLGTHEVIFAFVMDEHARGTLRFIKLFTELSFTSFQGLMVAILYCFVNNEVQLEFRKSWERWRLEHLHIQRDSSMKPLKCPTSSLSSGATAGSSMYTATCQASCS
T1 sequence (P47871 whole entry): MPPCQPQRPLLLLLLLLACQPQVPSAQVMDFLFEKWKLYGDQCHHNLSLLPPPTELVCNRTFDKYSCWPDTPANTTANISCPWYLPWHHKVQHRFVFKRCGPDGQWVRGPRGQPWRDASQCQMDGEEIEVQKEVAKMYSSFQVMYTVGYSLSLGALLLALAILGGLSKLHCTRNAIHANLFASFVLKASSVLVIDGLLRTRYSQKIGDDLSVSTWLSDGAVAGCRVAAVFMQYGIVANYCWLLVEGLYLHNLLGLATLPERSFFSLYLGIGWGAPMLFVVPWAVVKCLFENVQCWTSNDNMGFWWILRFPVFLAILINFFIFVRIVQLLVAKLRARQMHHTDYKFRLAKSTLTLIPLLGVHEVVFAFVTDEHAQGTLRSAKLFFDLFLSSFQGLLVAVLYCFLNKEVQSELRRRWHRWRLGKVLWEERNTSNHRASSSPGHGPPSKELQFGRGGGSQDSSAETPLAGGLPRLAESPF
Glucagon receptor (Mus musculus), sequence (Q61606 whole entry): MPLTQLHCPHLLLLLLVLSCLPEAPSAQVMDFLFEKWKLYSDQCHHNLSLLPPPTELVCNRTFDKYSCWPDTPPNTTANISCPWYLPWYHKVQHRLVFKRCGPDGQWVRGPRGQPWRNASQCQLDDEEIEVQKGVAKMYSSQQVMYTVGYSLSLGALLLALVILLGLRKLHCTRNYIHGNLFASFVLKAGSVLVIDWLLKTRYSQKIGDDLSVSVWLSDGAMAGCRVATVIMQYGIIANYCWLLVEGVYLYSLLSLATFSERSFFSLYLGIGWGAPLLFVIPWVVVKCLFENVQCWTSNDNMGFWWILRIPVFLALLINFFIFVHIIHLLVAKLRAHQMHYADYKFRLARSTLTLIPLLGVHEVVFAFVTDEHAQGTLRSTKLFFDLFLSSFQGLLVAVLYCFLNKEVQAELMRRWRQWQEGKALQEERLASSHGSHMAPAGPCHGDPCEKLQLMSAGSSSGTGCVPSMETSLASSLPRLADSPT

For `CCCCCCCCCCCCCCCC(=O)N[C@@H](CCC(=O)NCCCC[C@H](NC(=O)[C@H](Cc1ccc(O)cc1)NC(=O)[C@H](CCCCN)NC(=O)[C@H](CO)NC(=O)[C@H](CCSC)NC(=O)[C@H](CC(=O)O)NC(=O)[C@H](CO)NC(=O)[C@@H](NC(=O)[C@H](Cc1ccccc1)NC(=O)[C@@H](NC(=O)CNC(=O)[C@H](CCC(N)=O)NC(=O)[C@H](CO)NC(=O)[C@@H](N)Cc1c[nH]cn1)[C@@H](C)O)[C@@H](C)O)C(=O)N[C@@H](CC(=O)O)C(=O)N[C@@H](CO)C(=O)N[C@@H](CCCNC(=N)N)C(=O)N[C@@H](CCCNC(=N)N)C(=O)N[C@@H](C)C(=O)N[C@@H](CCC(N)=O)C(=O)N[C@@H](CC(=O)O)C(=O)N[C@@H](Cc1ccccc1)C(=O)N[C@H](C(=O)N[C@@H](CC(=O)O)C(=O)N[C@@H](Cc1c[nH]c2ccccc12)C(=O)N[C@@H](CC(C)C)C(=O)N[C@@H](CCCCN)C(=O)N[C@@H](CC(N)=O)C(=O)NCC(=O)NCC(=O)N1CCC[C@H]1C(=O)N[C@@H](CO)C(=O)N[C@@H](CO)C(=O)NCC(=O)N[C@@H](C)C(=O)N1CCC[C@H]1C(=O)N1CCC[C@H]1C(=O)N1CCC[C@H]1C(=O)N[C@@H](CO)C(N)=O)C(C)C)C(=O)O` (H-HSQGTFTSDMSKYK([γGlu-Palmitoyl])DSRRAQDFVDWLKNGGPSSGAPPPS-NH2), the Activity [1] was “Active”, the Ratio EC50 [2] was 3 and the Activity [3] was “Active”. The Activity [4] was “Active”, the Activity [5] was 482% and the Ratio EC50 [6] was 3. The Activity [7] was “Active”, the Activity [8] was “Active” and the Activity [9] was “Active”. The Activity [10] was “Dose-Dependent Effect”, the Activity [11] was “Active” and the Ratio EC50 [12] was 3. The Activity [13] was “Active”, the Activity [14] was “inactive” and the Activity [15] was “Active”. The Activity [16] was “Active”, the Activity [17] was “Active” and the Activity [18] was “Active”. The Activity [19] was “Active”, the Activity [20] was “Active” and the EC50 [21] was 0.027 nM. The Activity [22] was “Active”, the Activity [23] was 30.6% and the Activity [24] was “Active”. The Activity [25] was 341%, the EC50 [26] was 0.011 nM and the Activity [27] was “Active”. For the same compound, the Activity [28] was “Active”.
